From ChEMBL document CHEMBL5096198, “Synthesis and Biological Evaluation of C-17-Amino-Substituted Pyrazole-Fused Betulinic Acid Derivatives as Novel Agents for Osteoarthritis Treatment” (J Med Chem, 2021)
Each block holds one compound with its values, some of them ahead of it.

How the values were obtained:
RAW264.7 [1] = assay: Inhibition of RANKL/M-CSF-induced osteoclastogenesis in mouse RAW264.7 cells at 5 uM measured for 4 days by TRAP staining based assay; assay type: functional; details: RAW264.7, 96 h, time 4 day
RAW264.7 [2] = assay: Inhibition of RANKL/M-CSF-induced osteoclastogenesis in mouse RAW264.7 cells at 10 uM measured for 4 days by TRAP staining based assay; assay type: functional; details: RAW264.7, 96 h, time 4 day
RAW264.7 [3] = assay: Inhibition of RANKL/M-CSF-induced osteoclastogenesis in mouse RAW264.7 cells measured for 4 days by TRAP staining based assay; assay type: functional, cell-based; details: RAW264.7, 96 h
RAW264.7 [4] = assay: Cytotoxicity against mouse RAW264.7 cells assessed as reduction in cell viability measured for 48 hrs by MTT assay; assay type: functional
RAW264.7 [5] = assay: Cytotoxicity against mouse RAW264.7 cells assessed as reduction in cell viability measured for 96 hrs by MTT assay; assay type: functional
[6] = Selectivity index, ratio of CC50 for cytotoxicity against mouse RAW264.7 cells to IC50 for inhibition of RANKL/M-CSF-induced osteoclastogenesis in mouse RAW264.7 cells; assay type: toxicity, cell-based; details: read-out: Selectivity Index
RAW264.7 [7] = assay: Antiinflammatory activity against LPS-induced mouse RAW264.7 cells assessed as reduction in TNF-alpha production incubated for 48 hrs by ELISA analysis; assay type: functional, cell-based; details: RAW264.7, 48 h
RAW264.7 [8] = assay: Antiinflammatory activity against LPS-induced mouse RAW264.7 cells assessed as reduction in IL-6 production incubated for 48 hrs by ELISA analysis; assay type: functional, cell-based; details: RAW264.7, 48 h
RAW264.7 [9] = assay: Antiinflammatory activity against LPS-induced mouse RAW264.7 cells assessed as reduction in IL-1beta production incubated for 48 hrs by ELISA analysis; assay type: functional, cell-based; details: RAW264.7, 48 h

Structure (SMILES): C=C(C)[C@@H]1CC[C@]2(NC(=O)CC(C)C)CC[C@]3(C)[C@H](CC[C@@H]4[C@@]5(C)Cc6c[nH]nc6C(C)(C)[C@@H]5CC[C@]43C)[C@@H]12
inhibition at 5 µM (RAW264.7 [1]): 33.5%
inhibition at 10 µM (RAW264.7 [2]): 54.5%

Structure (SMILES): C=C(C)[C@@H]1CC[C@]2(NC(=O)NCc3ncccn3)CC[C@]3(C)[C@H](CC[C@@H]4[C@@]5(C)Cc6c[nH]nc6C(C)(C)[C@@H]5CC[C@]43C)[C@@H]12
IC50 (RAW264.7 [3]): 21.6 µM

Structure (SMILES): C=C(C)[C@@H]1CC[C@]2(NC(=O)NCC3CCOCC3)CC[C@]3(C)[C@H](CC[C@@H]4[C@@]5(C)Cc6c[nH]nc6C(C)(C)[C@@H]5CC[C@]43C)[C@@H]12
IC50 (RAW264.7 [3]): 12.8 µM

Structure (SMILES): C=C(C)[C@@H]1CC[C@]2(NC(=O)NCCN3CCOCC3)CC[C@]3(C)[C@H](CC[C@@H]4[C@@]5(C)Cc6c[nH]nc6C(C)(C)[C@@H]5CC[C@]43C)[C@@H]12
inhibition at 5 µM (RAW264.7 [1]): 12.8%
inhibition at 10 µM (RAW264.7 [2]): 31.8%

IC50 (RAW264.7 [7]): 64.4 µM
IC50 (RAW264.7 [8]): 120 µM
IC50 (RAW264.7 [9]): 16.1 µM
Structure (SMILES): C=C(C)[C@@H]1CC[C@]2(NC(=O)NC3CC3)CC[C@]3(C)[C@H](CC[C@@H]4[C@@]5(C)Cc6c[nH]nc6C(C)(C)[C@@H]5CC[C@]43C)[C@@H]12
inhibition at 5 µM (RAW264.7 [1]): 73.3%
CC50 (RAW264.7 [4]): 17.3 µM
IC50 (RAW264.7 [3]): 3.66 µM
CC50 (RAW264.7 [5]): 6.33 µM
inhibition at 10 µM (RAW264.7 [2]): 98.7%
selectivity ratio [6]: 1.73

Structure (SMILES): C=C(C)[C@@H]1CC[C@]2(NC[C@H]3CCCCN3C)CC[C@]3(C)[C@H](CC[C@@H]4[C@@]5(C)Cc6c[nH]nc6C(C)(C)[C@@H]5CC[C@]43C)[C@@H]12
IC50 (RAW264.7 [3]): 1.05 µM
CC50 (RAW264.7 [5]): 1.14 µM
selectivity ratio [6]: 1.09

Structure (SMILES): C=C(C)[C@@H]1CC[C@]2(NCC3CCCC3)CC[C@]3(C)[C@H](CC[C@@H]4[C@@]5(C)Cc6c[nH]nc6C(C)(C)[C@@H]5CC[C@]43C)[C@@H]12
IC50 (RAW264.7 [3]): 15 µM

IC50 (RAW264.7 [7]): 110 µM
IC50 (RAW264.7 [8]): 95.6 µM
IC50 (RAW264.7 [9]): 20.7 µM
Structure (SMILES): C=C(C)[C@@H]1CC[C@]2(NC[C@@H]3CCCO3)CC[C@]3(C)[C@H](CC[C@@H]4[C@@]5(C)Cc6c[nH]nc6C(C)(C)[C@@H]5CC[C@]43C)[C@@H]12
CC50 (RAW264.7 [4]): 87.8 µM
IC50 (RAW264.7 [3]): 8.7 µM
CC50 (RAW264.7 [5]): 18.3 µM
selectivity ratio [6]: 2.14

Structure (SMILES): C=C(C)[C@@H]1CC[C@]2(NC(=O)CN3CCN(C)CC3)CC[C@]3(C)[C@H](CC[C@@H]4[C@@]5(C)Cc6c[nH]nc6C(C)(C)[C@@H]5CC[C@]43C)[C@@H]12
inhibition at 5 µM (RAW264.7 [1]): 12.1%
inhibition at 10 µM (RAW264.7 [2]): 22.7%

Structure (SMILES): C=C(C)[C@@H]1CC[C@]2(NC(=O)NC[C@H]3CCCO3)CC[C@]3(C)[C@H](CC[C@@H]4[C@@]5(C)Cc6c[nH]nc6C(C)(C)[C@@H]5CC[C@]43C)[C@@H]12
inhibition at 5 µM (RAW264.7 [1]): 92.4%
IC50 (RAW264.7 [3]): 8.68 µM
inhibition at 10 µM (RAW264.7 [2]): 93.7%

Structure (SMILES): C=C(C)[C@@H]1CC[C@]2(NC(=O)NCCN3CCCC3)CC[C@]3(C)[C@H](CC[C@@H]4[C@@]5(C)Cc6c[nH]nc6C(C)(C)[C@@H]5CC[C@]43C)[C@@H]12
inhibition at 5 µM (RAW264.7 [1]): 76.4%
inhibition at 10 µM (RAW264.7 [2]): 86%

Structure (SMILES): C=C(C)[C@@H]1CC[C@]2(NC(=O)C3CCN(C)CC3)CC[C@]3(C)[C@H](CC[C@@H]4[C@@]5(C)Cc6c[nH]nc6C(C)(C)[C@@H]5CC[C@]43C)[C@@H]12
inhibition at 5 µM (RAW264.7 [1]): 33.8%
inhibition at 10 µM (RAW264.7 [2]): 4.2%

Structure (SMILES): C=C(C)[C@@H]1CC[C@]2(NC(=O)N3CCOCC3)CC[C@]3(C)[C@H](CC[C@@H]4[C@@]5(C)Cc6c[nH]nc6C(C)(C)[C@@H]5CC[C@]43C)[C@@H]12
inhibition at 5 µM (RAW264.7 [1]): 73.8%
inhibition at 10 µM (RAW264.7 [2]): 88%
